Test results as given in patent US20250170124A1, “METHODS OF DIAGNOSING AND TREATING NEURODEGENERATIVE DISEASES” (The General Hospital Corporation, priority 2022, published 2025).
Read-outs that look alike come from different tables or passages of the source.

Assays:
[1] = test system: alpha-synuclein 5′-UTR IRE (SNCA 5′UTR); assay: Primary screen/retest: ASYN 5′-UTR IRE-driven luciferase expression in H4 cells; format: cell-based, human; conditions: Homo sapiens, 48 h
PGL3 5′UTR = assay: Secondary (counterscreen) luciferase assay in H4-C cells, IRE stem-loop removed; format: cell-based, human; conditions: versus SNCA 5′UTR
[2] = test system: PrP-5′UTR (prion protein IRE); format: cell-based, human; conditions: versus SNCA 5′UTR
alpha-synuclein = assay: ELISA secondary screen for alpha-synuclein in SH-SY5Y cells; format: cell-based, human; set-up: Decrease syn(%) SHSY5Y cells: unit of the concentration uncertain; conditions: for Decrease αsyn(%) SHSY5Y cells: Table 2; for Decrease syn(%) SHSY5Y cells: Table 3
Protocol: FIG. 2 illustrates the results of ELISA experiments with compound 10 in SH-SY5Y cells. […]
FIG. 18 illustrates alpha Synuclein ELISA (Invitrogen) measurements from SHSY5 undifferentiated neurons treated with the indicated doses (triplicate wells) of compounds 2, 13, 11, 14, 15, and 16) for 48 h.
A human ASYN ELISA kit was utilized for all ELISA experiments (Invitrogen alpha-synuclein ELISA kit KHB0061) and the kit protocol was followed.
1) Plate SH-SY5Y […] cells (Corning, 3570) at 10,000 cells/well in 50 μL phenol red free media (phenol red-free DMEM with 4.5 g/L D-glucose [Lonza, 12-917F] supplemented with 10% FBS [Lonza, 14-503E], 200 μM L-glutamine [Lonza, 17-605E], 100 μM penstrep [Lonza, 17-602E] and 200 μg/mL geneticin [Invitrogen, 10131-027]).
2) Lid plates, then incubate cells for 24 hours at 37° C., 5% CO2, 95% humidity in a tissue culture incubator.
3) Pin 100 nL of each compound into the assay plates spanning a final concentration range from 100-0.006 μM.
4) Incubate plates for 48 h at 37° C., 5% CO2, 95% humidity. Following incubation, add 5 μL of Alamar blue solution per well and allow to incubate for 1 h at 37° C., 5% CO2, 95% humidity.
5) Read Alamar blue fluorescence using a Thermo Varioskan (570 nm excitation, 585 nm emission). Remove cell media and add 30 μL cell lysis solution with protease inhibitor (G Biosciences, 786-331; 10 μL/mL).
6) Place plates on a plate shaker for 1 h, before removing 20 μL lysate. Transfer cell lysates to 500 μL Eppendorf tubes and centrifuge (Eppendorf Centrifuge 5417C) for 10 min at 13,000 rpm.
7) Add 12 μL of the cell supernatant to 48 μL of standard diluent buffer (1:5). Add these samples to ELISA plate wells. Prepare ASYN standard curve wells as described in the kit manual.
8) Add 50 μL of anti-α-Synuclein (Detection Antibody) solution to each well, tapping the plate to mix. Cover the plate with a tape seal and incubate for 3 h at RT.
9) Wash wells four times with wash buffer using a multichannel pipette and add 100 μL of anti-rabbit IgG-HRP antibody solution to each well. Cover the plate and incubate for 30 min at RT. Wash wells four times with wash buffer and add 100 μL of Stabilized Chromogen to each well. Seal the plate and incubate in the dark at RT for 30 min.
10) Finally, add 100 μL of Stop Solution to each well, tapping the plate to mix, and read absorbance at 450 nm using an Envision plate reader (Perkin Elmer).

α-Synuclein [3] = assay: Decrease of α-syn in iPSC derived DA neurons; format: cell-based, human; set-up: Decrease syn(%) DA neurons: dose or concentration left out as unconfirmed; conditions: for Decrease αsyn(%) DA neurons: Table 2, @ 1 μM; for Decrease syn(%) DA neurons: Table 3
α-Synuclein [4] = assay: Western blots of α-syn in iPSC derived DA neuron lysates; format: cell-based, human; conditions: 72 h; for inhibition of α-Synuclein protein expression versus β-Syn, γ-Syn, Ferritin, APP and Prion proteins: 1 μM, normalized to β-Actin; for α-syn levels (Western blot): 10 μM and 1 μM compound, β-actin standardized, N=3
α-Syn = assay: Decrease of α-syn in Triple SNCA cortical neurons; conditions: Table 2; concentration not given
[5] = Table 2, H4 cells, luciferase, read-out: IC50/μM (SNCA 5′UTR)
[6] = Table 3, H4 cells, luciferase, read-out: IC50/M (SNCA 5′UTR)

Row | Compound | IC50 [1, 5] [µM] | Selectivity PGL3 5′UTR (PGL3 5′UTR; Table 2) | Selectivity PrP-5′UTR ([2]; Table 2) | IC50 [1, 6] [µM] | Selectivity PGL3 5′UTR (PGL3 5′UTR; Table 3) | Selectivity PrP-5′UTR ([2]; Table 3) | also measured
1 | CCOC(=O)c1[nH]c(C)c(C(=O)c2cc(F)ccc2F)c1C [Compound 8, ethyl 4-(2,5-difluorobenzoyl)-3,5-dimethyl-1H-pyrrole-2-carboxylate] | 0.2 | 53-fold | 58-fold |  |  |  | Decrease αsyn(%) SHSY5Y cells (alpha-synuclein; @ 0.1-1 μM): 20-40 @ 0.1-1%
2 | Cc1cc(C)cc(Nc2nc3ccc(C)cc3n3cnnc23)c1 [Compound 4, N-(3,5-dimethylphenyl)-8-methyl-[1,2,4]triazolo[4,3-a]quinoxalin-4-amine] | 2.8 | 43-fold | 18-fold |  |  |  | Decrease αsyn(%) SHSY5Y cells (alpha-synuclein; @ 1 μM): 25-50 @ 1%
3 | COc1ccc(/C=C/C(=O)c2cc(F)ccc2OC(=O)c2ccccc2)cc1OC [Compound 14, 2-[(2E)-3-(3,4-dimethoxyphenyl)prop-2-enoyl]-4-fluorophenyl benzoate] |  |  |  | 0.194 | 66-fold | Inc. | Decrease syn(%) SHSY5Y cells (alpha-synuclein; @ 0.1 µM): 20-50 @ 0.1M %
4 | COC(=O)c1c(NC(=O)c2ccc([N+](=O)[O-])o2)sc2c1CCN(C(C)C)C2 [Compound 9, methyl 6-isopropyl-2-(5-nitrofuran-2-carboxamido)-4,5,6,7-tetrahydrothieno[2,3-c]pyridine-3-carboxylate] |  | 1,200-fold |  |  | 1,200-fold |  | IC50 ([1]; read-out: IC50/M (SNCA 5′UTR)): 0.1 µM; IC50 ([1]; read-out: IC50/μM (SNCA 5′UTR)): 0.1 µM; Decrease αsyn(%) DA neurons (α-Synuclein [3]): 90 @ 1 μM %; Decrease syn(%) DA neurons (α-Synuclein [3]): 90 @ 1M %; inhibition of α-Synuclein protein expression versus β-Syn, γ-Syn, Ferritin, APP and Prion proteins (α-Synuclein [4]): selectively inhibit; α-syn levels (Western blot) (α-Synuclein [4]): reduced
5 | CCC1=Nc2cc(C(=O)NCCCOC)ccc2Sc2ccccc21 [Compound 7, 11-ethyl-N-(3-methoxypropyl)dibenzo[b,f][1,4]thiazepine-8-carboxamide] | 0.127 | 68-fold | 127-fold |  |  |  | Decrease αsyn(%) SHSY5Y cells (alpha-synuclein; @ 1 μM): 30-60 @ 1%
6 | CCOC(=O)c1[nH]c(C)c(C(=O)c2cc(F)ccc2F)c1C [Compound 13, Ethyl 4-(2,5-difluorobenzoyl)-3,5-dimethyl-1H-pyrrole-2-carboxylate] |  |  |  | 0.2 | 53-fold | 58-fold | Decrease syn(%) SHSY5Y cells (alpha-synuclein; @ 0.1-1M): 20-40 @ 0.1-1M %
7 | CCC1=Nc2cc(C(=O)NCCCOC)ccc2Sc2ccccc21 [Compound 16, 11-ethyl-N˜8˜-(3-methoxypropyl)dibenzo[b,f][1,4]thiazepine-8-carboxamide] |  |  |  | 0.127 | 68-fold | 127-fold | Decrease syn(%) SHSY5Y cells (alpha-synuclein; @ 1 µM): 30-60 @ 1M^ %
8 | O=C(c1ccc(C[S+]([O-])c2ccccc2Cl)o1)N1CCN(c2ccccc2)CC1 (stereo not drawn) [Compound 12, 1-(5-{[(2-Chlorophenyl)sulfinyl]methyl}-2-furoyl)-4-phenylpiperazine] |  |  |  | 0.1 | 80-fold | Inc. | Decrease syn(%) SHSY5Y cells (alpha-synuclein; @ 0.1-1M): 21-42 @ 0.1-1M %
9 | COc1ccc(/C=C/C(=O)c2cc(F)ccc2OC(=O)c2ccccc2)cc1OC [Compound 5, (E)-2-(3-(3,4-dimethoxyphenyl)acryloyl)-4-fluorophenyl benzoate] | 0.194 | 66-fold | Inc. |  |  |  | Decrease αsyn(%) SHSY5Y cells (alpha-synuclein; @ 0.1 μM): 20-50 @ 0.1%
10 | Cc1cc(C)cc(Nc2nc3ccc(C)cc3n3cnnc23)c1 [Compound 15, N-(3,5-dimethylphenyl)-8-methyl[1,2,4]triazolo[4,3-a]quinoxalin-4-amine] |  |  |  | 2.8 | 43-fold | 18-fold | Decrease syn(%) SHSY5Y cells (alpha-synuclein; @ 1 µM): 25-50 @ 1M^ %
11 | O=C(c1ccc(C[S+]([O-])c2ccccc2Cl)o1)N1CCN(c2ccccc2)CC1 (stereo not drawn) [Compound 6, (5-(((2-chlorophenyl)sulfinyl)methyl)furan-2-yl)(4-phenylpiperazin-1-yl)methanone] | 0.1 | 80-fold | Inc. |  |  |  | Decrease αsyn(%) SHSY5Y cells (alpha-synuclein; @ 0.1-1 μM): 21-42 @ 0.1-1%
12 | COC(=O)C1CC23C=CCN4CCC5(c6ccccc6NC15C2C)C43 (stereo not drawn) [Compound 3, methyl 14-methyl-4,5,11,12-tetrahydro-1H,3a^1H,6H-3a,5a-methanoindolizino[8,1-cd]carbazole-5-carboxylate] |  | 31-fold | 17-fold |  | 31-fold | 17-fold | IC50 ([1]; read-out: IC50/M (SNCA 5′UTR)): 0.134 µM; IC50 ([1]; read-out: IC50/μM (SNCA 5′UTR)): 0.134 µM; Decrease αsyn(%) SHSY5Y cells (alpha-synuclein; @ 1-10 μM): 15-19 @ 1-10%; Decrease syn(%) SHSY5Y cells (alpha-synuclein; @ 1-10M): 15-19 @ 1-10M %; Decrease αsyn(%) DA neurons (α-Synuclein [3]): 60 @ 1 μM %; Decrease syn(%) DA neurons (α-Synuclein [3]): 60 @ 1M %; inhibition of α-Synuclein protein expression versus β-Syn, γ-Syn, Ferritin, APP and Prion proteins (α-Synuclein [4]): selectively inhibit; α-syn levels (Western blot) (α-Synuclein [4]): reduced; Decrease αsyn(%) X3 SNCA neurons (α-Syn): 50%
13 | COc1cccc(N2CCN(C(=O)c3ccc(C[S+]([O-])c4ccc(C)cc4)o3)CC2)c1 (stereo not drawn) [Compound 1, (4-(3-methoxyphenyl)piperazin-1-yl)(5-((p-tolylsulfinyl)methyl)furan-2-yl)methanone] | 0.1 | 58-fold | 126-fold |  |  |  | Decrease αsyn(%) SHSY5Y cells (alpha-synuclein; @ 1 μM): 14-28 @ 1%
14 | CN(C)c1nc(N)nc(CSc2nnnn2-c2cccc3ccccc23)n1 [Compound 10, N^2,N^2-dimethyl-6-(((1-(naphthalen-1-yl)-1H-tetrazol-5-yl)thio)methyl)-1,3,5-triazine-2,4-diamine] |  | 34-fold | 35-fold |  | 34-fold | 35-fold | IC50 ([1]; read-out: IC50/M (SNCA 5′UTR)): 1.8 to 3.5 µM; IC50 ([1]; read-out: IC50/μM (SNCA 5′UTR)): 1.8 to 3.5 µM; Decrease αsyn(%) SHSY5Y cells (alpha-synuclein; @ 0.1 μM): 19-38 @ 0.1%; Decrease syn(%) SHSY5Y cells (alpha-synuclein; @ 0.1 µM): 19-38 @ 0.1M %; Decrease αsyn(%) DA neurons (α-Synuclein [3]): 60 @ 1 μM %; Decrease syn(%) DA neurons (α-Synuclein [3]): 60 @ 1M %; inhibition of α-Synuclein protein expression versus β-Syn, γ-Syn, Ferritin, APP and Prion proteins (α-Synuclein [4]): selectively inhibit; α-syn levels (Western blot) (α-Synuclein [4]): reduced; Decrease αsyn(%) X3 SNCA neurons (α-Syn): 25%
